Test results reported in US7973032B2, “Staurosporine derivatives for use in alveolar rhabdomyosarcoma” (University of Zurich, priority 2005, dated 2011).

Assays:
aRMS cells [1] = test: apoptosis / caspase 3 activity in aRMS cells; format: cell-based; details: aRMS cells in vitro
Text: (§1) Recently, we have established a gene signature characteristic for the Pediatric sarcoma alveolar rhabdomyosarcoma (aRMS), which expresses the chimaeric fusion protein PAX3/FKHR due to a chromosomal translocation event t(2; 13). Based on this signature, a number of potential therapeutic target molecules have been selected for further study, such as FGFR2. […] Furthermore, tumor growth could also be inhibited in vivo using a mouse xenograft tumor model.

aRMS = test: mouse xenograft tumor model; details: in vivo
Text: as §1

aRMS cells [2] = test: cell growth of aRMS cells in vitro; format: cell-based
Text: as §1

PAX3/FKHR = molecular target: T1, PAX3/FKHR (Homo sapiens, UniProt P23760+Q12778); test: expression of PAX3/FKHR specific target gene CB1; format: cell-based; details: upon treatment
T1 construct: FKHR (FOXO1, Q12778) C-terminal portion as fusion partner; endogenous in cells
T1 sequence (P23760+Q12778 fused): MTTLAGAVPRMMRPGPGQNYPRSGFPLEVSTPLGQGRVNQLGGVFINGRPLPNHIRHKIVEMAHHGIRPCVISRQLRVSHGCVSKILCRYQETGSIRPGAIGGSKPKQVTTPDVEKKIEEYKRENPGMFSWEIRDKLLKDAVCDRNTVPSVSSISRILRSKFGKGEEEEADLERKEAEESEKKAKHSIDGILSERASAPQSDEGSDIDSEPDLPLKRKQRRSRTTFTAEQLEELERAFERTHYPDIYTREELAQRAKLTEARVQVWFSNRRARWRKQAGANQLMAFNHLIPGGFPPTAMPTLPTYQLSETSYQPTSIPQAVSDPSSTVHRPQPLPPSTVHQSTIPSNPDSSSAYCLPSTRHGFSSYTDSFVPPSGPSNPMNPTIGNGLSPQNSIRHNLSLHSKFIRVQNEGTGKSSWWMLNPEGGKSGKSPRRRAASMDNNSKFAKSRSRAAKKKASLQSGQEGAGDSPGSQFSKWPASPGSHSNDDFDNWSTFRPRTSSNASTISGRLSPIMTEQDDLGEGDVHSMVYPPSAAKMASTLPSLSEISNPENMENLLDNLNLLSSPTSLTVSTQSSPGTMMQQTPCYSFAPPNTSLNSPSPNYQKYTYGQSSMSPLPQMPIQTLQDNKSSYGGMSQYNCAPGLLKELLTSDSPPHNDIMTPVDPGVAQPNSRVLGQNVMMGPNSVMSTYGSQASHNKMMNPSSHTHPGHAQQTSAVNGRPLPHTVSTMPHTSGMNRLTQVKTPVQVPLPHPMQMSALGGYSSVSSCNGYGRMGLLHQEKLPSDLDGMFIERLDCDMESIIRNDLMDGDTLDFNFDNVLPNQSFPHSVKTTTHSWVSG

Question: What does the source list for `CO[C@@H]1[C@H](N(C)C(=O)c2ccccc2)C[C@H]2O[C@]1(C)n1c3ccccc3c3c4c(c5c6ccccc6n2c5c31)C(=O)NC4` [PKC412, N-[(9S,10R,11R,13R)-2,3,10,11,12,13-hexahydro-10-methoxy-9-methyl-1-oxo-9,13-epoxy-1H,9H-diindolo[1,2,3-gh:3′,2′,1′-Im]pyrrolo[3,4-j][1,7]benzodiazonin-11-yl]-N-methylbenzamide]?
Answer: apoptosis (aRMS cells [1]): induce apoptosis; caspase 3 activity (aRMS cells [1]): enhanced caspase 3 activity; tumor growth (aRMS): inhibited; cell growth of aRMS cells (aRMS cells [2]): efficiently inhibit cell growth; CB1 expression (PAX3/FKHR): completely abolished
